# Data: a melting point compilation (Tetko et al.; mined from patent text by program, amines drawn as free bases though some values may be those of a salt)
row,SMILES,melting point [°C]
1,COC(=O)C1Cc2cccc(OC)c2N1S(=O)(=O)c1ccc(I)cc1 (stereo not drawn),161
2,OCCOc1csc2ccccc12,55 to 56
3,CCCCNc1nc2ccccc2n2ncc(C(=O)OCC)c12,96
4,CCCCn1c(=O)c2nn(S(=O)(=O)c3cccc4cccnc34)cc2n(CCCC)c1=O,203 to 205
5,Cc1cc(-n2ccnc2)c2cccc(OCc3c(Cl)ccc(S(=O)(=O)N4CCC[C@H]4C(=O)NCCc4ccncc4)c3Cl)c2n1,120
6,O=C(O)CN1C(=S)c2cccc3c(Br)ccc1c23,253
7,Cc1ccccc1-n1c(CCl)nc2ccccc2c1=O,205 to 206
8,CCOc1cc(Nc2cccc3c2C(=O)N(C2CCC(=O)NC2=O)C3=O)ccc1OC (stereo not drawn),162 to 164
9,CCCCCCCCCCCc1nc(N)n[nH]1,128 to 132
10,COc1ccc(C(C)(O)CO)cc1CN[C@H]1C2CCN(CC2)[C@H]1C(c1ccccc1)c1ccccc1 (stereo partly drawn),65.5 to 82.8
11,Cc1cn(-c2cccc(OS(N)(=O)=O)c2)cn1,202 to 204
12,CCOC(=O)Nc1cccc2c1CN(C)CC2c1ccccc1 (stereo not drawn),174
13,Cc1nc(N)c2nc(CO)n(NCc3ccccc3)c2c1C,> 250
14,COC(=O)CCC(=C1SCCCS1)c1ccc(Oc2ccccc2)cc1,95 to 96
15,CN(C(=O)c1ccc(-n2cc3ccccc3n2)cc1)[C@@H]1CCN(C(=O)OC(C)(C)C)C1,133 to 134
16,Cc1cc(C)nc(NC(=O)NS(=O)(=O)c2ccccc2OS(=O)(=O)N(C)C)n1,195 to 196
17,CN1C(=O)N(CCC(COc2ccc(-c3ccc(C#N)cc3)cc2)N(O)C=O)C(=O)C1(C)C (stereo not drawn),68 to 70
18,CC(C)[C@H]1C(=O)OCN1C(=O)OCc1ccccc1,54 to 55
19,CCCN1CCCCC1C(=O)Nc1c(C)cccc1C (stereo not drawn),142 to 145
20,NS(=O)(=O)c1ccc(-c2oc3c(Cl)ccc(O)c3c(=O)c2-c2ccc(F)cc2)cc1,251 to 252
21,Nc1cccc(S(=O)(=O)Nc2nncs2)c1,155 to 158
22,CC(C)(C=O)C(O)(CCc1ccc(F)cc1)Cn1cncn1 (stereo not drawn),98
23,CCCCCCCCCC(O)CNCCCNCC(O)CCCCCCCCC (stereo not drawn),94 to 103
24,CCOP(=O)(CCOc1ccc(C(=O)O)cc1)OCC,86 to 88
25,Cn1c(C(=O)N[C@H]2CCCC[C@H]2C(=O)N[C@H](C#N)CO)cc2ccccc21,78.4 to 79

row,SMILES,melting point [°C]
1,COC(=O)c1cc([N+](=O)[O-])c(C=Cc2ccc(OC)cc2)c([N+](=O)[O-])c1,142 to 143
2,COc1nc(C)c(Nc2nc(Cl)cn([C@H](COC(=O)Nc3cccc(C#N)c3)C3CC3)c2=O)cc1C,206 to 207
3,COCCOCC(=O)N(c1c(C)c(C)cc2ccccc12)C1CCOC1=O (stereo not drawn),142 to 146
4,ClCCCCCOc1ccc(C2=C(c3ccccc3)CCCc3ccccc32)cc1,118 to 120
5,CCCCCCCCCCCCCCCCC(C(=O)OC(C)(C)C)C(=O)c1ccc(C(=O)OC(C)C)c(Cl)c1 (stereo not drawn),44
6,CC(C)S(=O)(=O)c1ccc2c(c1)nc(CC1CC1)n2CC1CC1,107
7,CCOC(=O)CCc1cc(Cl)ccc1C(=O)CCCNC(=O)CCCNC(C)=O,95
8,Cc1cc(-c2cccc([N+](=O)[O-])c2)nnc1N(C)N,173 to 174
9,CC1(C)C(=O)N(c2ccc([N+](=O)[O-])c(C(F)(F)F)c2)C(=O)N1CC=CCN1C(=O)N(c2ccc([N+](=O)[O-])c(C(F)(F)F)c2)C(=O)C1(C)C,191 to 193
10,COC(=O)c1cc(I)cn1CCF,49 to 50.5
11,Cc1ccn2cc(CS)nc2c1,164 to 168
12,COc1cnccc1CCCOc1cccnc1Oc1cccc(Br)c1,134 to 136
13,COc1cc(C(=O)NCCc2ccc(F)cc2)cnc1C(=O)O,110
14,O=Cc1ccc2oc(-c3ccc4ccc(Cl)cc4n3)cc2c1,235 to 236
15,COc1cccc(CNC(=O)c2cc3c(=O)n(Cc4ccc([N+](=O)[O-])nc4)c(=O)n(C)c3s2)c1,213 to 215
16,CC(C)(C)c1csc(-c2cc3cc(Cc4nc(C(=O)O)cs4)ccc3o2)n1,227 to 230
17,OC1(c2cccn2Cc2ccccc2F)CCN(Cc2ccccc2)CC1,112 to 117
18,CC(C)CC(O)(Cn1cncn1)c1ccccc1 (stereo not drawn),94 to 95
19,CCOC(=O)c1ccc(CCCCN2C(=O)c3ccccc3C2=O)cc1,85 to 86
20,COCCc1nc2c(N)nc3ccccc3c2n1CCCNC(=O)Nc1ccccc1,40
21,CCN1C(=O)CCCc2cc(Nc3ncc(Cl)c(N[C@H]4[C@@H](C(N)=O)[C@@H]5C=C[C@H]4C5)n3)c(OC)cc21,145 to 153
22,CCOC(=O)C1=C(C(F)(F)F)Nc2n[nH]cc2C1c1ccsc1 (stereo not drawn),140 to 145
23,Nc1nc2c(c(=O)[nH]1)CCCC2,> 300
24,CCC(=O)NCCCC(=O)O,85 to 90
25,CC(C)CC(C(=O)OCc1ccccc1)N1C(=O)C2(CCCN2C(=O)OC(C)(C)C)CC1O (mixture of isomers),134 to 135

row,SMILES,melting point [°C]
1,O=C1NCCCN1C1CCN(Cc2ccccc2)CC1,178 to 180
2,Nc1nc(NCCN2CCC(NC3(Cc4ccc(F)cc4)Nc4ccccc4N3)CC2)ccc1[N+](=O)[O-],206
3,CCC(=O)c1c(CC)n(Cc2ccccc2Cl)c2cc(-c3nnn[nH]3)ccc12,178 to 181
4,CC(C)(C)c1cc(P(c2ccccc2)c2cc(C(C)(C)C)c(O)c(C(C)(C)C)c2)cc(C(C)(C)C)c1O,138 to 140
5,O=C(NNS(=O)(=O)c1ccccc1)c1ccc2c(c1)CCO2,181 to 183
6,CCOc1nc(-c2ccc(NC(=O)NCc3cccnc3)cc2)ccc1C(=O)NC,200
7,CCOC(=O)c1ccccc1C(=O)c1ccc2c(c1)C(C)(C)CCC2(C)C,58 to 59
8,CNC(=O)N1CCC(C(c2ccc(F)cc2)N(Cc2ccc(F)cc2)C(=O)NC)CC1 (stereo not drawn),120 to 162
9,CCOC(=O)CC(NS(=O)(=O)c1cccc(-c2cccc(NC(=NC#N)NCc3ccccn3)c2)c1)c1ccccc1 (stereo not drawn),82
10,CC(=O)Oc1cc(N2C(=O)C=CC2=O)ccc1C(=O)O,110 to 119
11,NCc1noc(-c2ncn3c2[C@@H]2CCCN2C(=O)c2sccc2-3)n1,156 to 158
12,OC(Cn1cncn1)(c1ccccc1)C1OC1c1ccccc1Cl (stereo not drawn),180 to 182
13,CNC(=O)N1CC(Oc2ccc(Br)cc2)C1,135 to 137
14,CSc1nc(-c2cccnc2)n(-c2ccc(F)cc2)c(=O)c1C#N,190 to 193
15,Cc1ccc(C2CNCc3[nH]c4ccccc4c32)cc1 (stereo not drawn),223 to 224
16,O=c1cc(-c2ccc([N+](=O)[O-])cc2)c2c(O)cc(O)cc2o1,268 to 270
17,O=C(O)c1ccc(-c2nc3ccc([N+](=O)[O-])cc3s2)cc1,352 to 355
18,O=C(O)[C@@H]1Cc2ccccc2N1c1ccc(Cl)nn1,211 to 212
19,Nc1ccccc1CSc1ncc(C(F)(F)F)cc1Cl,98 to 102
20,Oc1c(Cl)cc(C2=NCCO2)cc1Cl,189 to 191
21,Cc1nc(-c2cccnc2)sc1-c1ccnc(Nc2ccc(N3CCOCC3)cc2)n1,240 to 242
22,COc1cc(CCl)ccc1C12CC3CC(CC(C3)C1)C2,77 to 78
23,Cc1cc(N)cnc1CCCC#N,103 to 105
24,Nc1c(C(=O)c2cccnc2)[nH]c2cc(Cl)ccc12,188 to 189
25,Cc1ccc(Nc2nnc(-c3ccc(N4CCOCC4)c([N+](=O)[O-])c3)s2)cc1Cl,268 to 269

row,SMILES,melting point [°C]
1,Cc1nc2c(n1Cc1ccccc1)CCCC2=O,115
2,CCN1CCC2(CC1)COc1cc3c(cc12)N(C(=O)c1ccc(-c2ccc(C(=O)NNC(C)=O)cc2C)cc1)CC3,154 to 157
3,COc1cc2c(cc1S(=O)(=O)c1ccc(Br)cc1)[C@@H](N1CCCC1=O)[C@H](O)C(C)(C)O2 (relative stereo),281 to 282
4,CC(=O)Nc1nc(-c2ccc(C(C)(C)C)cc2)c(-c2ccncc2)s1,280 to 281
5,COc1ccc(C=C(C)[N+](=O)[O-])c(OC)c1,80 to 81
6,COc1ncnc(OC)c1N(C(=O)CCl)C(C)n1cccn1 (stereo not drawn),124 to 126
7,Clc1ccc(N2CC3CCC(C2)N3Cc2ccccc2)cc1,115 to 117
8,CCCCc1nc(Cl)c(C=O)n1Cc1ccc(-c2ccccc2-c2n[nH]c(=O)o2)cc1,178 to 179
9,CC1(C)C(=O)Nc2cc3[nH]c(C4CCCCC4)nc3cc21,315 to 318
10,NS(=O)(=O)Oc1cccc(Cl)c1Cl,116 to 117
11,CN(CC(=O)C(Cc1ccccc1)NC(=O)c1ccccc1)C(=O)OC(Cc1ccccc1)C(=O)O (stereo not drawn),52 to 60
12,CCCCC(=O)Nc1cccc(-n2nc(CCCC)n(Cc3ccc(-c4ccccc4S(=O)(=O)NC(=O)c4ccccc4Cl)cc3)c2=O)c1,102 to 105
13,CON=C(C#N)C(=O)NC(=O)NC1CC1,182
14,Nc1ncc(-c2ccc(F)c3ccccc23)o1,171 to 174
15,N#CC1(c2ccccc2)CCN(C(=O)CC(c2ccccc2)(c2ccccc2)c2ccccc2)CC1,188 to 190
16,COC(=O)Cc1ccc(CNC(=O)C2Cc3ccccc3N2S(=O)(=O)c2ccc(-c3cccc(C)c3)cc2)cc1 (stereo not drawn),66 to 68
17,COC(=O)c1ccc(OCC(C)NCC(O)c2ccc(O)c(CO)c2)cc1 (stereo not drawn),60 to 68
18,O=C(NCc1ccc(Cl)cc1)c1cnc2c(F)cc(CCCCCO)cc2c1O,193 to 195
19,O=C(O)CCCC=Cc1nn(-c2ccc(F)cc2)c2c1CCC2,90 to 91
20,Clc1ccc(C(c2ccccc2)N2CCN(CCCn3cnc4ccccc43)CC2)cc1 (stereo not drawn),106
21,COC1OCC[C@@H]1NC(=O)[C@H](CC(C)C)NC(=O)CNC(=O)C(C)(C)Oc1ccc2c(c1)Nc1ccccc1S2 (stereo partly drawn),100 to 104
22,COc1ccc(Cn2cc(C(=O)O)c(=O)c3ccc(N4CCNCC4)cc32)cc1,230 to 235
23,Cc1oc(COc2ccc(/C=C/CO)cc2)nc1-c1ccccc1,154 to 155
